Assay results published in patent US12024510B2, “Pyrazolopyridine-diamides, their use as insecticide and processes for preparing the same” (PI INDUSTRIES LTD., priority 2017, dated 2024).

Tested on: Plutella xylostella
Experiment: whole plant or invertebrate
Format: in vivo
Conditions: foliar, cabbage leaf dip, second instar larvae, dead and moribund combined, 72 h after release
Experimental: Test Solutions were Prepared According to the Procedure Described Herein Below (500 PPM):
• 1. Eppendorf Vortex mixer (ThermoMixer C) and 1.5 mL Eppendorf tubes • 2. Zirconia (Zirconium-Yttrium) beads having diameter of 0.8 to 1.0 mm • 3. Microscope • 4. Beaker 100 mL • 5. Micro-pipette Reagents: • 1. Surfactant Solution • 2. De-mineralized (DM) Water • 1. Weigh 10 mg of the compound of the present invention to be tested in an Eppendorf Tube. • 2. Add 200 mg of the Surfactant Solution into the tube. • 3. Add 600 mg of Zirconia beads into the above mixture. • 4. Fix the tube in Eppendorf Vortex mixer and start vortexing at 2000 rpm. • 5. Mix on Vortex mixer for 30 minutes. After 30 minutes, observe the sample over a microscope at 400× resolution. • 6. If the Maximum particle size is more than 5 μm or average particle size is more than 2 μm or the particle size distribution is uneven, continue vortexing for another 30 minutes and again check the particle size using the microscope. Continue till the average particle size is below 2 microns. • 7. When the required particle size is achieved, add 1.0 mL DM water into the tube, close the cap, shake the tube thoroughly and transfer the contents, along with the beads, into a beaker. • 8. To rinse the tube, add another 1.0 mL of DM water into the tube, close the cap, shake well and transfer this into the same beaker. • 9. Repeat Step no. 8 one more time so that the tube is rinsed well and the compound of the present invention to be tested is transferred to the beaker. • 10. Add 16.8 mL of DM water into the beaker and stir well. • 11. The homogeneous dispersion can then be decanted into a glass vial, immediately, to separate the Zirconia beads. • 12. Immediately use this sample for biological testing. • 13. Further dilutions can be prepared by taking appropriate quantity of the aliquot of Step 10, immediately after stirring, and diluting as per requirement. The sample solution must be well mixed just before biological testing.
Leaf dip method was used for screening, wherein the required quantity of the compounds were weighed and dissolved in the test solution into the tube and vortex at 2000 rpm with Zirconia beads for 90 min for proper mixing, then mixed with 0.01% Triton-X solution to get the desired test concentration. Cabbage leaves were dipped in the solution for 10 seconds, shade dried for 20 min and then transferred to bioassay trays. Single second instar larva was released into each cell and the tray was covered with lid. The bio-assay trays were kept under laboratory conditions at a temperature of 25° C. and relative humidity of 70%. Observations on dead, moribund and live larvae were recorded at 72 h after the release. Percent mortality was calculated by combining dead and moribund larvae. The following compound num.

| Structure (SMILES) | mortality at 300 ppm |
| --- | --- |
| COc1cc(C(=O)Nc2c(Cl)cc3ccnn3c2C(=O)NCC#N)n(-c2ncccc2Cl)n1 [Compound 149, 5-chloro-6-(1-(3-chloropyridin-2-yl)-3-methoxy-1H-pyrazole-5-carboxamido)-N-(cyanomethyl)pyrazolo[1,5-a]pyridine-7-carboxamide] | > 70% |
| CONC(=O)c1c(NC(=O)c2cc(OC)nn2-c2ncccc2Cl)c(Cl)cc2ccnn12 [Compound 150, 5-chloro-6-(1-(3-chloropyridin-2-yl)-3-methoxy-1H-pyrazole-5-carboxamido)-N-methoxypyrazolo[1,5-a]pyridine-7-carboxamide] | > 70% |
| CONC(=O)c1c(NC(=O)c2cc(Br)nn2-c2ncccc2Cl)ccc2ccnn12 [Compound 163, 6-(3-bromo-1-(3-chloropyridin-2-yl)-1H-pyrazole-5-carboxamido)-N-methoxypyrazolo[1,5-a]pyridine-7-carboxamide] | > 70% |
| CCC(CC)NC(=O)c1c(NC(=O)c2cc(Br)nn2-c2ncccc2Cl)c(C)cc2ccnn12 [Compound 185, 6-(3-bromo-1-(3-chloropyridin-2-yl)-1H-pyrazole-5-carboxamido)-5-methyl-N-(pentan-3-yl)pyrazolo[1,5-a]pyridine-7-carboxamide] | > 70% |
| CCC(COC)NC(=O)c1c(NC(=O)c2cc(Br)nn2-c2ncccc2Cl)c(C)cc2ccnn12 (stereo not shown) [Compound 192, 6-(3-bromo-1-(3-chloropyridin-2-yl)-1H-pyrazole-5-carboxamido)-N-(1-methoxybutan-2-yl)-5-methylpyrazolo[1,5-a]pyridine-7-carboxamide] | > 70% |
| CCC(COC)NC(=O)c1c(NC(=O)c2cc(OC)nn2-c2ncccc2Cl)c(C)cc2ccnn12 (stereo not shown) [Compound 205, 6-(1-(3-chloropyridin-2-yl)-3-methoxy-1H-pyrazole-5-carboxamido)-N-(1-methoxybutan-2-yl)-5-methylpyrazolo[1,5-a]pyridine-7-carboxamide] | > 70% |
| Cc1cc2ccnn2c(C(=O)NC2CS(=O)(=O)C2)c1NC(=O)c1cc(Br)nn1-c1ncccc1Cl [Compound 208, 6-(3-bromo-1-(3-chloropyridin-2-yl)-1H-pyrazole-5-carboxamido)-N-(1,1-dioxidothietan-3-yl)-5-methylpyrazolo[1,5-a]pyridine-7-carboxamide] | > 70% |
| COc1cc(C(=O)Nc2c(C)cc3ccnn3c2C(=O)NC(C)CCC(C)C)n(-c2ncccc2Cl)n1 (stereo not shown) [Compound 210, 6-(1-(3-chloropyridin-2-yl)-3-methoxy-1H-pyrazole-5-carboxamido)-5-methyl-N-(5-methylhexan-2-yl)pyrazolo[1,5-a]pyridine-7-carboxamide] | > 70% |
| COc1cc(C(=O)Nc2c(C)cc3ccnn3c2C(=O)NC(C)C(C)C)n(-c2ncccc2Cl)n1 (stereo not shown) [Compound 212, 6-(1-(3-chloropyridin-2-yl)-3-methoxy-1H-pyrazole-5-carboxamido)-5-methyl-N-(3-methylbutan-2-yl)pyrazolo[1,5-a]pyridine-7-carboxamide] | > 70% |
| COc1cc(C(=O)Nc2c(Br)cc3ccnn3c2C(=O)NC2(C)CC2)n(-c2ncccc2Cl)n1 [Compound 223, 5-bromo-6-(1-(3-chloropyridin-2-yl)-3-methoxy-1H-pyrazole-5-carboxamido)-N-(1-methylcyclopropyl)pyrazolo[1,5-a]pyridine-7-carboxamide] | > 70% |
